{"source": "patent EP4624469A1", "about": "(Jiangsu Hengrui Pharmaceuticals Co., Ltd., priority 2022, dated 2024)", "key": {"[1]": {"experiment": "DVS (dynamic vapor sorption) hygroscopicity testing", "type": "physicochemical", "protocol": "DVS refers to dynamic vapor sorption: Surface Measurement Systems instrinsic was adopted; the humidity started at 50%, the humidity range of the investigation was 0%-95%, and the humidity was increased in increments of 10%; the criterion was that each gradient mass change dM/dT is ≤ 0.002%, TMAX 360 min, two cycles."}, "[2]": {"experiment": "Influencing factors stability test (light exposure, high temperature, high humidity)", "type": "physicochemical", "conditions": "for remaining at 120 h / remaining at 240 h / remaining at 720 h: solid storage, read-out: Purity%", "excerpt": "Table 11. The influencing factor stability of the crystal form"}, "[3]": {"experiment": "Long-term accelerated stability tests", "type": "physicochemical", "conditions": "for Purity (%): Initial; for Crystal form: up to 6 months", "excerpt": "Table 12. The long-term accelerated stability of the crystal form"}, "[4]": {"test_system": "miR-124", "experiment": "Up-regulation of miR-124 in CD3/CD28 antibody-activated T cells (SYBR green fluorescence quantitative PCR)", "type": "cell-based", "conditions": "T-cell, 72 h; activated human T cells, final compound concentration 1 µM, 3 days; relative to DMSO, U6 internal reference; read-out: up-regulated miR-124 (relative expression level)", "protocol": "The effect of the compound on miR-124 expression levels was assessed in CD3/CD28 antibody-activated T cells. After the activated T cells were treated with the compound, the total cellular RNA was extracted, the cDNA obtained from reverse transcription was used as a template, and quantification was performed by using an SYBR green fluorescence quantitative PCR method and a specific miR-124 primer.\nIsolation of T cells: The purchased human peripheral blood mononuclear cells (PBMCs) were counted, filtered, and then washed once with a separation buffer (PBS, pH 7.4, containing 0.5% BSA and 2 mM EDTA), and the supernatant was discarded. Various components were added in such a manner that for every 1 × 10^7 cells, 40 µL of buffer and 10 µL of pan T Cell Biotin-Antibody Cocktail were added. The pellets were resuspended and well mixed, and the suspension was incubated in a refrigerator at 4 °C for 5 min. After the incubation was completed, various components were added in such a manner that for every 1 × 10^7 cells, 30 µL of buffer and 20 µL of Pan T Cell MicroBeads Cocktail were added. After thorough mixing, the mixture was incubated in a refrigerator at 4 °C for 10 min. […] The cells were counted and added at a density of 1 × 10^6 cells/mL to an RPMI1640 culture medium (complete culture medium) containing 10% FBS and 40 U/mL IL-2, and the mixture was stored on ice for later use. […]"}, "[5]": {"conditions": "Light exposure (4500 Lux), 5 days"}, "[6]": {"conditions": "Light exposure (4500 Lux), 10 days"}, "[7]": {"conditions": "Light exposure (4500 Lux), 30 days"}}, "note": "Like-named read-outs stand apart in the source and are kept apart here.", "data": [{"smiles": "FC1(F)Oc2ccc(Nc3ccc4cccc(Cl)c4n3)cc2O1", "note": "[crystal form A, 8-chloro-N-(2,2-difluorobenzo[d][1,3]dioxol-5-yl)quinolin-2-amine]", "values": [{"measurement": "hygroscopic weight gain", "setting": "[1]; accelerated experimental conditions (70% RH)", "value": "about 0.02%"}, {"measurement": "crystal form re-identified after DVS testing", "setting": "[1]; after DVS testing", "value": "the crystal form did not change"}, {"measurement": "hygroscopic weight gain", "setting": "[1]; extreme conditions (90% RH)", "value": "about 0.18%"}, {"measurement": "hygroscopic weight gain", "setting": "[1]; normal storage conditions (room temperature and 60% RH)", "value": "about 0.02%"}, {"measurement": "Color and state", "setting": "[2]; 40°C, 5 days", "value": "Off-white solid"}, {"measurement": "Crystal form", "setting": "[2]; 40°C, 5 days", "value": "Did not change"}, {"measurement": "Color and state", "setting": "[2]; 40°C, 10 days", "value": "Off-white solid"}, {"measurement": "Crystal form", "setting": "[2]; 40°C, 10 days", "value": "Did not change"}, {"measurement": "Color and state", "setting": "[2]; 40°C, 30 days", "value": "Off-white solid"}, {"measurement": "Crystal form", "setting": "[2]; 40°C, 30 days", "value": "Did not change"}, {"measurement": "Color and state", "setting": "[2]; 60°C, 5 days", "value": "Off-white solid"}, {"measurement": "Crystal form", "setting": "[2]; 60°C, 5 days", "value": "Did not change"}, {"measurement": "Color and state", "setting": "[2]; 60°C, 10 days", "value": "Off-white solid"}, {"measurement": "Crystal form", "setting": "[2]; 60°C, 10 days", "value": "Did not change"}, {"measurement": "Color and state", "setting": "[2]; 60°C, 30 days", "value": "Off-white solid"}, {"measurement": "Crystal form", "setting": "[2]; 60°C, 30 days", "value": "Did not change"}, {"measurement": "Color and state", "setting": "[2]; 75% RH, 5 days", "value": "Off-white solid"}, {"measurement": "Crystal form", "setting": "[2]; 75% RH, 5 days", "value": "Did not change"}, {"measurement": "Color and state", "setting": "[2]; 75% RH, 10 days", "value": "Off-white solid"}, {"measurement": "Crystal form", "setting": "[2]; 75% RH, 10 days", "value": "Did not change"}, {"measurement": "Color and state", "setting": "[2]; 75% RH, 30 days", "value": "Off-white solid"}, {"measurement": "Crystal form", "setting": "[2]; 75% RH, 30 days", "value": "Did not change"}, {"measurement": "Color and state", "setting": "[2]; 92.5% RH, 5 days", "value": "Off-white solid"}, {"measurement": "Crystal form", "setting": "[2]; 92.5% RH, 5 days", "value": "Did not change"}, {"measurement": "Color and state", "setting": "[2]; 92.5% RH, 10 days", "value": "Off-white solid"}, {"measurement": "Crystal form", "setting": "[2]; 92.5% RH, 10 days", "value": "Did not change"}, {"measurement": "Color and state", "setting": "[2]; 92.5% RH, 30 days", "value": "Off-white solid"}, {"measurement": "Crystal form", "setting": "[2]; 92.5% RH, 30 days", "value": "Did not change"}, {"measurement": "Color and state", "setting": "[2]; Initial, 0 days", "value": "Off-white solid"}, {"measurement": "Crystal form", "setting": "[2]; Initial, 0 days", "value": "Crystal form A"}, {"measurement": "Purity (%)", "setting": "[2]; Initial, 0 days", "value": 100.0, "unit": "%"}, {"measurement": "Color and state", "setting": "[2]; [5]", "value": "Off-white solid"}, {"measurement": "Crystal form", "setting": "[2]; [5]", "value": "Did not change"}, {"measurement": "Color and state", "setting": "[2]; [6]", "value": "Off-white solid"}, {"measurement": "Crystal form", "setting": "[2]; [6]", "value": "Did not change"}, {"measurement": "Color and state", "setting": "[2]; [7]", "value": "Off-white solid"}, {"measurement": "Crystal form", "setting": "[2]; [7]", "value": "Did not change"}, {"measurement": "physical and chemical stability (conclusion)", "setting": "[2]; light exposure, 40 °C and 60 °C, 75% and 92.5% humidity, 30 days", "value": "both good physical stability and good chemical stability"}, {"measurement": "remaining at 120 h", "setting": "[2]; 40°C, 5 days", "value": 100, "unit": "%"}, {"measurement": "remaining at 240 h", "setting": "[2]; 40°C, 10 days", "value": 100, "unit": "%"}, {"measurement": "remaining at 720 h", "setting": "[2]; 40°C, 30 days", "value": 100, "unit": "%"}, {"measurement": "remaining at 120 h", "setting": "[2]; 60°C, 5 days", "value": 100, "unit": "%"}, {"measurement": "remaining at 240 h", "setting": "[2]; 60°C, 10 days", "value": 100, "unit": "%"}, {"measurement": "remaining at 720 h", "setting": "[2]; 60°C, 30 days", "value": 100, "unit": "%"}, {"measurement": "remaining at 120 h", "setting": "[2]; 75% RH, 5 days", "value": 100, "unit": "%"}, {"measurement": "remaining at 240 h", "setting": "[2]; 75% RH, 10 days", "value": 100, "unit": "%"}, {"measurement": "remaining at 720 h", "setting": "[2]; 75% RH, 30 days", "value": 100, "unit": "%"}, {"measurement": "remaining at 120 h", "setting": "[2]; 92.5% RH, 5 days", "value": 100, "unit": "%"}, {"measurement": "remaining at 240 h", "setting": "[2]; 92.5% RH, 10 days", "value": 100, "unit": "%"}, {"measurement": "remaining at 720 h", "setting": "[2]; 92.5% RH, 30 days", "value": 100, "unit": "%"}, {"measurement": "remaining at 120 h", "setting": "[2]; [5]", "value": 100, "unit": "%"}, {"measurement": "remaining at 240 h", "setting": "[2]; [6]", "value": 100, "unit": "%"}, {"measurement": "remaining at 720 h", "setting": "[2]; [7]", "value": 99.9, "unit": "%"}, {"measurement": "Purity (%)", "setting": "[3]; 25 °C, 60% RH", "value": 100.0, "unit": "%"}, {"measurement": "Crystal form", "setting": "[3]; 25 °C, 60% RH", "value": "Did not change"}, {"measurement": "physical and chemical stability (conclusion)", "setting": "[3]; 25 °C/60% RH and 40 °C/75% RH, 6 months", "value": "both good physical stability and good chemical stability"}, {"measurement": "Purity (%)", "setting": "[3]; 40 °C, 75% RH", "value": 100.0, "unit": "%"}, {"measurement": "Crystal form", "setting": "[3]; 40 °C, 75% RH", "value": "Did not change"}, {"measurement": "remaining at 720 h", "setting": "[3]; solid storage, 25 °C, 60% RH, 1M, read-out: Purity (%)", "value": 100, "unit": "%"}, {"measurement": "remaining at 1440 h", "setting": "[3]; solid storage, 25 °C, 60% RH, 2M, read-out: Purity (%)", "value": 100, "unit": "%"}, {"measurement": "remaining at 2160 h", "setting": "[3]; solid storage, 25 °C, 60% RH, 3M, read-out: Purity (%)", "value": 100, "unit": "%"}, {"measurement": "remaining at 4320 h", "setting": "[3]; solid storage, 25 °C, 60% RH, 6M, read-out: Purity (%)", "value": 100, "unit": "%"}]}, {"smiles": "FC1(F)Oc2ccc(Nc3ccc4cccc(Cl)c4n3)cc2O1", "note": "[Compound 1, 8-Chloro-N-(2,2-difluorobenzo[d][1,3]dioxol-5-yl)quinolin-2-amine]", "values": [{"measurement": "fold induction at 1 µM", "setting": "[4]", "value": 3.9}]}]}
